Measurements published in BindingDB's records for doi:10.1111/j.1527-3458.2004.tb00024.x (Karolinska Institutet, 2004).

Biological target: T1, D1 dopamine receptor (Macaca fascicularis, UniProt Q5I6B7)
T1 sequence (Q5I6B7 whole entry): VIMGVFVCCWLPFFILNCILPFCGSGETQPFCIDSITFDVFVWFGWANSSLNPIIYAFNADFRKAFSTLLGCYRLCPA

Oc1cc2c(cc1O)C1c3ccccc3CNC1CC2 (stereo unspecified) [Dihydrexidine, DHX]
Ki: 20.2 nM
